From ChEMBL document CHEMBL1649476, “In vitro chemosensitization of Plasmodium falciparum to antimalarials by verapamil and probenecid” (Antimicrob Agents Chemother, 2009)

Assays:
[1] = system: Plasmodium falciparum; test: Antiplasmodial activity against multidrug-resistant Plasmodium falciparum VS/1 by [3H]hypoxanthine incorporation assay; format: functional, organism-based
[2] = system: Plasmodium falciparum; test: Selectivity ratio of IC50 for Plasmodium falciparum 3D7 to IC50 for multidrug-resistant Plasmodium falciparum VS/1; format: functional
[3] = system: Plasmodium falciparum; test: Antiplasmodial activity against Plasmodium falciparum 3D7 by [3H]hypoxanthine incorporation assay; format: functional, organism-based
[4] = system: Plasmodium falciparum; test: Chemosensitization of desethylamodiaquin against multidrug-resistant Plasmodium falciparum VS/1 by [3H]hypoxanthine incorporation assay; format: functional
[5] = system: Plasmodium falciparum; test: Chemosensitization of methotrexate against multidrug-resistant Plasmodium falciparum VS/1 by [3H]hypoxanthine incorporation assay; format: functional
[6] = system: Plasmodium falciparum; test: Chemosensitization of primaquine against multidrug-resistant Plasmodium falciparum VS/1 by [3H]hypoxanthine incorporation assay; format: functional
[7] = system: Plasmodium falciparum; test: Chemosensitization of lumefantrine against multidrug-resistant Plasmodium falciparum VS/1 by [3H]hypoxanthine incorporation assay; format: functional
[8] = system: Plasmodium falciparum; test: Chemosensitization of amodiaquin against multidrug-resistant Plasmodium falciparum VS/1 by [3H]hypoxanthine incorporation assay; format: functional
[9] = system: Plasmodium falciparum; test: Chemosensitization of halofantrine against multidrug-resistant Plasmodium falciparum VS/1 by [3H]hypoxanthine incorporation assay; format: functional
[10] = system: Plasmodium falciparum; test: Chemosensitization of quinine against multidrug-resistant Plasmodium falciparum VS/1 by [3H]hypoxanthine incorporation assay; format: functional
[11] = system: Plasmodium falciparum; test: Chemosensitization of mefloquine against multidrug-resistant Plasmodium falciparum VS/1 by [3H]hypoxanthine incorporation assay; format: functional
[12] = system: Plasmodium falciparum; test: Chemosensitization of chlorcycloguanil against multidrug-resistant Plasmodium falciparum VS/1 by [3H]hypoxanthine incorporation assay; format: functional
[13] = system: Plasmodium falciparum; test: Chemosensitization of piperaquine against multidrug-resistant Plasmodium falciparum VS/1 by [3H]hypoxanthine incorporation assay; format: functional
[14] = system: Plasmodium falciparum; test: Chemosensitization of sesquiterpene dihydroartemisinin pyronaridine against multidrug-resistant Plasmodium falciparum VS/1 by [3H]hypoxanthine incorporation assay; format: functional
[15] = system: Plasmodium falciparum; test: Chemosensitization of chloroquine against multidrug-resistant Plasmodium falciparum VS/1 by [3H]hypoxanthine incorporation assay; format: functional
[16] = system: Plasmodium falciparum; test: Chemosensitization of pyrimethamine against multidrug-resistant Plasmodium falciparum VS/1 by [3H]hypoxanthine incorporation assay; format: functional
[17] = system: Plasmodium falciparum; test: Chemosensitization of benzonaphthyridine pyronaridine against multidrug-resistant Plasmodium falciparum VS/1 by [3H]hypoxanthine incorporation assay; format: functional

With `CCN(CC)Cc1cc(Nc2ccnc3cc(Cl)ccc23)ccc1O` the IC50 [1] was 8 nM.
With `CC1(C)N=C(N)N=C(N)N1c1ccc(Cl)c(Cl)c1` [CHLORCYCLOGUANIL] the IC50 [1] was 79 nM.
Work on `CCNCc1cc(Nc2ccnc3cc(Cl)ccc23)ccc1O` [DESETHYL AMODIAQUINE] yielded an IC50 [1] of 42 nM.
`CCCCN(CCCC)CCC(O)c1cc2c(Cl)cc(Cl)cc2c2cc(C(F)(F)F)ccc12` (configuration not stated) [HALOFANTRINE] showed an IC50 [1] of 9 nM.
In the case of `CCCCN(CCCC)CC(O)c1cc(Cl)cc2c1-c1ccc(Cl)cc1/C2=C/c1ccc(Cl)cc1` (configuration not stated) [LUMEFANTRINE], the “Ratio IC50” value [2] is reported as 2, the IC50 [1] is reported as 53 nM and the IC50 [3] is reported as 1690 nM.
`CN(Cc1cnc2nc(N)nc(N)c2n1)c1ccc(C(=O)N[C@@H](CCC(=O)O)C(=O)O)cc1` [METHOTREXATE] gave an IC50 [1] of 63 nM.
`Clc1ccc2c(N3CCN(CCCN4CCN(c5ccnc6cc(Cl)ccc56)CC4)CC3)ccnc2c1` [PIPERAQUINE] showed an IC50 [1] of 88 nM.
With `COc1cc(NC(C)CCCN)c2ncccc2c1` (configuration not stated) [PRIMAQUINE] the “Ratio IC50” value [2] was 5, the IC50 [1] was 326 nM and the IC50 [3] was 326 nM.
`CCCN(CCC)S(=O)(=O)c1ccc(C(=O)O)cc1` [PROBENECID] was tested, and the FICI [4] was 1.12 nM, the FICI [5] was 1.02 nM and the FICI [6] was 0.83 nM. The FICI [7] was 1.21 nM, the FICI [8] was 1.57 nM and the FICI [9] was 0.57 nM. For the same molecule, the FICI [10] was 1.2 nM, the FICI [11] was 0.78 nM and the FICI [12] was 0.64 nM. It also gave an FICI [13] of 0.12 nM, an FICI [14] of 1.12 nM and an FICI [15] of 0.78 nM. For the same molecule, the FICI [16] was 0.2 nM and the FICI [17] was 5.9 nM.
Work on `CCc1nc(N)nc(N)c1-c1ccc(Cl)cc1` [PYRIMETHAMINE] yielded an IC50 [1] of 5000 nM.
Molecule `C=C[C@H]1CN2CC[C@H]1C[C@H]2[C@H](O)c1ccnc2ccc(OC)cc12` [QUININE] has an IC50 [1] of 133 nM.
Work on `COc1ccc(CCN(C)CCCC(C#N)(c2ccc(OC)c(OC)c2)C(C)C)cc1OC` (configuration not stated) [VERAPAMIL] yielded an FICI [4] of 0.47 nM, an FICI [5] of 1.33 nM and an FICI [6] of 0.71 nM. For the same molecule, the FICI [7] was 0.55 nM, the FICI [8] was 1.4 nM and the FICI [9] was 1.1 nM. It also gave an FICI [10] of 0.39 nM, an FICI [11] of 1.12 nM and an FICI [12] of 1 nM. It also gave an FICI [13] of 1.13 nM, an FICI [14] of 1.07 nM and an FICI [15] of 0.52 nM. The FICI [16] was 1.07 nM and the FICI [17] was 1.07 nM.
